Source: article PMC5207038 (ACS chemical biology, 2016)
Entries after “also recorded” stand apart in the source; their conditions may differ.

Experiments:
A2BAR = target: T1, A2BAR (Homo sapiens, UniProt P29275); assay: Functional assay for the A2BAR in CHO cells; assay type: cell-based; details: for functional activity at A2BAR: inactive refers to 10 µM
T1 sequence (P29275 1-332): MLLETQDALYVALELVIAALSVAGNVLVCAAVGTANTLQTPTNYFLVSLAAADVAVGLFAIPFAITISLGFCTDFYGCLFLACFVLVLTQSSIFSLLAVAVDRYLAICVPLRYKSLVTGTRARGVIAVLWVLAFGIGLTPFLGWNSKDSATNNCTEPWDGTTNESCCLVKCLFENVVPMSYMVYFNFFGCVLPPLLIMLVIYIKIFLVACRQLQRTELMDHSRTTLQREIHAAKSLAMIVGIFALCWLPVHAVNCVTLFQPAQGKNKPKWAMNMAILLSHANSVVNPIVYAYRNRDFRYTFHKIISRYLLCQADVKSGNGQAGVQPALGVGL

A1AR = target: T2, A1AR (Homo sapiens, UniProt P30542); details: cAMP assay
T2 sequence (P30542 1-326): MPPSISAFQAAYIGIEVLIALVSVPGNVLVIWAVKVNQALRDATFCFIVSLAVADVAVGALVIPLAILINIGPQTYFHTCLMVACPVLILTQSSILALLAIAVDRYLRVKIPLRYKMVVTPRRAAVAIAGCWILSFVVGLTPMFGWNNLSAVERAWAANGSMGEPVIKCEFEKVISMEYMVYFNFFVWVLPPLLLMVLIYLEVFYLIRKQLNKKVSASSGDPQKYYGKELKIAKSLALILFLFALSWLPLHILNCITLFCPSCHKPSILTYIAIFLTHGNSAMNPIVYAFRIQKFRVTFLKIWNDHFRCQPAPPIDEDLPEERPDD

hA1AR = target: T3, hA1AR (Homo sapiens, UniProt P30542); assay: Radioligand binding at human A1AR, membranes of CHO cells; details: for inhibition at 10 µM: read-out: % inhibition at 10 µM A1AR; for % inhibition at 30 µM A1AR: radioligand displacement at 30 µM, bases; for inhibition at 30 µM: read-out: % inhibition at 30 µM A1AR
T3 sequence (P30542 1-326): T2 sequence (P30542 1-326)

hA2AAR = hA2AAR (Homo sapiens, UniProt P29274); assay: Radioligand binding at human A2AAR, membranes of HEK293 cells; details: for inhibition at 10 µM: read-out: % inhibition at 10 µM A2AAR; for % inhibition at 30 µM A2AAR: radioligand displacement at 30 µM, bases; for inhibition at 30 µM: read-out: % inhibition at 30 µM A2AAR
Chain of hA2AAR (P29274 whole entry): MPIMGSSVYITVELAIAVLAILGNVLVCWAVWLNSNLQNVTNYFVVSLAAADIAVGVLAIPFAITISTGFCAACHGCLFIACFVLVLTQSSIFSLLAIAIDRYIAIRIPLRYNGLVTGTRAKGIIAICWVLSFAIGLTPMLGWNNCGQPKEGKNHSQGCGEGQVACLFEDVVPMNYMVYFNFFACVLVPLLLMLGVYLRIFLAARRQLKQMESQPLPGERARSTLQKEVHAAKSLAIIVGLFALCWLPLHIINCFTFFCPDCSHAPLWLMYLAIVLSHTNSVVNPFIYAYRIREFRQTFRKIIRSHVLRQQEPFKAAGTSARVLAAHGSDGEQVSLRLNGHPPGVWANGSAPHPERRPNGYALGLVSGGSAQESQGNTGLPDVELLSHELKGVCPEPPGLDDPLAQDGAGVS

A3AR = target: T4, A3AR (Homo sapiens, UniProt P0DMS8)
T4 sequence (P0DMS8 1-318): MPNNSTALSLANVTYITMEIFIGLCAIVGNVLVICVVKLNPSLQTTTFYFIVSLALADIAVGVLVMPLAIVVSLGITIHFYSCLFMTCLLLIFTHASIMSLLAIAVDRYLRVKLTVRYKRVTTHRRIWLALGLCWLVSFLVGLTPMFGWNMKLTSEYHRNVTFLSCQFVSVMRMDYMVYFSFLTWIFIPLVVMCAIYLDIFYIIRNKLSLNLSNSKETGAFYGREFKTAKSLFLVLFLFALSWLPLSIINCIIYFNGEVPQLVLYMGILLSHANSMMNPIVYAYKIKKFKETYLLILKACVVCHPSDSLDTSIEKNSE

hA3AR = target: T5, hA3AR (Homo sapiens, UniProt P0DMS8); assay: Radioligand binding at human A3AR, membranes of CHO cells; details: for % inhibition at 30 µM A3AR: radioligand displacement at 30 µM, bases; for inhibition at 30 µM: read-out: % inhibition at 30 µM A3AR
T5 sequence (P0DMS8 1-318): T4 sequence (P0DMS8 1-318)

## Nc1ccnc2c1ncn2[C@@H]1O[C@H](CO)[C@@H](O)[C@H]1O [Compound 5, 1-deazaadenosine]
A2BAR
  EC50: 1.5 µM
  functional activity at A2BAR: full agonists

## Nc1nccc2c1ncn2[C@@H]1O[C@H](CO)[C@@H](O)[C@H]1O [Compound 6, 3-deazaadenosine]
A2BAR
  functional activity at A2BAR: inactive
A1AR
  functional activity at A1AR: no influence on cAMP levels was detected; also recorded: lost the ability to activate the receptor

## Nc1cccc2c1ncn2[C@@H]1O[C@H](CO)[C@@H](O)[C@H]1O [Compound 7, 1,3-dideazaadenosine]
hA1AR
  inhibition at 10 µM: 15 ± 2%
hA2AAR; radioligand displacement at 10 µM, mean ± standard error, three experiments
  % inhibition at 10 µM A2AAR: completely lost affinity
hA2AAR
  inhibition at 10 µM: 5 ± 2%
A3AR; cAMP assay, 10 µM for compound 11
  functional activity at A3AR: strongly selective agonist

## Nc1nc(=O)[nH]c2c1ncn2[C@@H]1O[C@H](CO)[C@@H](O)[C@H]1O [Compound 9, isoguanosine]
A2BAR
  EC50: 3.1 µM
  functional activity at A2BAR: full agonists

## Nc1ncn([C@@H]2O[C@H](CO)[C@@H](O)[C@H]2O)c(=O)n1 [Compound 12, 5-azacytidine]
hA2AAR
  inhibition at 10 µM: 34 ± 2%
A3AR; CHO, read-out: maximal efficacy A3AR
  Emax: ~30%

## Cc1cn([C@@H]2O[C@H](CO)[C@@H](O)[C@H]2O)c(=O)nc1N [Compound 13, 5-methylcytidine]
hA1AR
  inhibition at 10 µM: 10 ± 3%
hA2AAR
  inhibition at 10 µM: 13 ± 9%

## Nc1ncnc2[nH]cnc12 [Compound 26, adenine]
hA1AR
  % inhibition at 30 µM A1AR: No significant displacement
  inhibition at 30 µM: 19 ± 8%
hA2AAR
  % inhibition at 30 µM A2AAR: No significant displacement
  inhibition at 30 µM: 19 ± 8%
hA3AR
  % inhibition at 30 µM A3AR: No significant displacement

## Cn1c(=O)[nH]c2nc[nH]c2c1=O [Compound 28, 1-methylxanthine]
hA2AAR
  inhibition at 30 µM: 40 ± 8%
hA3AR
  inhibition at 30 µM: 36 ± 6%

## Nc1nc[nH]c(=O)c1Cl [Compound 29, 6-amino-5-chloropyrimidin-4(3H)-one]
hA1AR
  % inhibition at 30 µM A1AR: No significant displacement
  inhibition at 30 µM: 11 ± 3%
hA2AAR
  % inhibition at 30 µM A2AAR: No significant displacement
hA3AR
  % inhibition at 30 µM A3AR: No significant displacement
  inhibition at 30 µM: 19 ± 5%
